{"source": "patent US9249108B2", "about": "“Multicomponent system of rosuvastatin calcium salt and sorbitol” (BASF SE, priority 2010, dated 2016)", "key": {"[1]": {"type": "physicochemical", "method": "Aqueous Solubility Determination: Approximately 0.5 mL of doubly distilled water is added to 16 to 39 mg of the substance to be measured. The resulting suspension is equilibrated in a temperature-controlled Eppendorf Thermomixer Comfort shaker for 2 h and 24 h at 25° C. at a shaking rate of 600 rpm. After 24 h the solid phase is recovered by filter centrifugation (0.10-μm PVDF membrane) and examined by XRPD. Concentrations in the filtrate after 2 h and 24 h (i.e., saturated solutions) are determined using HPLC. The pH of the saturated solution is determined with a Metrohm 713 pH meter."}, "[2]": {"assay": "Water uptake under humidity", "type": "physicochemical"}}, "data": [{"substance": "Rosuvastatin hemicalcium salt/crystal form D (1:1 co-crystal with D-sorbitol)", "values": [{"measurement": "solubility", "setting": "[1]", "value": "as good as solid forms of Rosuvastatin calcium previously known"}, {"measurement": "water uptake under humidity", "setting": "[2]", "value": "less prone to water uptake under humidity"}]}]}
